Assay results reported in patent US20230131899A1, “INHIBITORS OF MICROBIALLY INDUCED AMYLOID” (Axial Therapeutics, Inc., priority 2020, published 2023).
Like-named read-outs stand apart in the source and are kept apart here.

Target: T1, E. coli CsgA (Escherichia coli, UniProt P28307)
T1 construct: made in house; host or cells: E. coli NEB 3016 slyD::kan, pET11d
Experiment: In vitro ThioflavinT assay of CsgA aggregation (CsgA ThT Assay)
Type: biochemical
Conditions: for remaining activity at 25 µM: compound 25 μM; for remaining activity at 100 µM: compound 100 μM
Description: In vitro ThioflavinT assay to determine effects of compounds on CsgA aggregation. To assess the effects of compounds on aggregation of E. coli CsgA, a cell-free assay was performed using purified CsgA and Thioflavin T. In the assay, histidine-tagged CsgA was over-expressed in E. coli NEB 3016 slyD::kan cells harboring a pET11d vector containing a C-terminal 6× His tag. Following growth in rich media, CsgA production is induced at an OD600 of approximately 1.0 by addition of 0.5 mM IPTG (isopropyl beta-D-1-thiogalactopyranoside) followed by incubation at 37° C. for 1-4 hours with shaking at 200-250 rpm. Bacteria were resuspended in 8 M guanidine hydrochloride in 50 mM potassium phosphate buffer, pH 7.3 and lysed by sonication on ice using three 20 second intervals. The resulting lysate was incubated on a platform rocker for 1 hour at room temperature. After centrifugation at 10,000×g for 20 minutes, the supernatant was further sonicated on ice for three 20 second intervals and then incubated with nickel-nitrilotriacetic acid resin (Sigma) at room temperature for 1 hour in a 50 mL conical tube on a platform rocker. The resin was washed and pelleted 5 times with 45 mL 8 M guanidine in 50 mM potassium phosphate buffer pH 7.3. The resin was further washed and pelleted two times with 8 M guanidine hydrochloride in 50 mM potassium phosphate buffer pH 7.3 containing 12.5 mM imidazole. Purified CsgA protein was eluted two times with 5 mL of 6-8 M guanidine hydrochloride in 50 mM potassium phosphate buffer, pH 7.3 containing 250 mM imidazole. The eluted protein was aliquoted with 150 μL per aliquot, snap frozen in liquid nitrogen, and stored at −80 C. In order to obtain monomeric CsgA, the purified CsgA protein was thawed and passed through two pre-chilled desalting columns (Zeba) to remove imidazole and guanidine. The buffer exchanged protein was loaded onto a 30-kDa centrifugal filter unit (Amicon) and spun for 30 minutes at 7500×g to remove dimers and other oligomers. Protein concentration was assessed by the NanoDrop technique (Thermo Scientific), as is familiar to one skilled in the art. The CsgA aggregation assay was conducted in 96-well black non-binding surface or white untreated microplates with 20-40 μM ThioflavinT, 50 mM potassium phosphate buffer pH 7.3, 1% DMSO, CsgA at 2-20 μM, and compounds at 3.125-200 uM. The vehicle control wells contain all components of the assay except test compounds and represent the level of CsgA aggregation in the absence of any inhibitor or accelerator. Plates were incubated at room temperature in a Tecan Nano F200 plate reader with excitation at 438 nm using a 439 nm filter with a bandwidth of 8 nm, and emission at 495 nm with a 490 nm filter with a bandwidth of 10 nm, or in a SpectraMax M5, SpectraMax M2 or SpectraMax® i3X (Molecular Devices, San Jose, Calif.) spectrophotometer with excitation at 438 nm and emission at 495 nm. During the assay, plates were shaken initially for 5 seconds and subsequently for 3 seconds prior to fluorescent readings. Readings were performed every 15 minutes for up to 1005 minutes. The effect of compounds on CsgA aggregation in the assay was determined with data from 0-17 hours. Fluorescence values for each compound with CsgA were first adjusted by subtracting the average fluorescence of the compound in the absence of CsgA or in the presence of CsgA and compound at time 0 or 15 minutes. The data were analyzed in several ways:
1. The adjusted ThT fluorescence values were normalized by dividing them by the average fluorescence in the vehicle control wells containing CsgA. The median normalized fluorescence from 6-6.5 hours or 8-9 hours with the compound was expressed as a percentage of the median fluorescence observed in vehicle controls over the same time period. Percent inhibition of CsgA aggregation by a compound was determined by subtracting the percent average fluorescence with the compound relative to the vehicle controls from 100%. […]

[1] = read-out: CsgA ThT Assay (10 μM CsgA) % Control AUC at 1005 minutes, 25 μM (activity range), CsgA 10 μM, black plates, 1005 minutes, class symbol
[2] = read-out: CsgA ThT Assay (10 μM CsgA) % Control AUC at 1005 minutes, 25 μM, mean AUC as % of DMSO control, CsgA 10 μM, black plates, 1005 minutes
[3] = read-out: CsgA ThT Assay (10 μM CsgA) % Control AUC at 1005 minutes, 100 μM (activity range), CsgA 10 μM, black plates, 1005 minutes, class symbol
[4] = read-out: CsgA ThT Assay (10 μM CsgA) % Control AUC at 1005 minutes, 100 μM, mean AUC as % of DMSO control, CsgA 10 μM, black plates, 1005 minutes
[5] = read-out: CsgA ThT Assay (2 μM CsgA) % Control Bmax 25 μM, activity range, class symbol, CsgA 2 μM, white plates
[6] = read-out: CsgA ThT Assay (2 μM CsgA) % Control Bmax 25 μM, mean Bmax as percentage of DMSO control, CsgA 2 μM, white plates
[7] = read-out: CsgA ThT Assay (2 μM CsgA) % Control Bmax 100 μM, activity range, class symbol, CsgA 2 μM, white plates
[8] = read-out: CsgA ThT Assay (2 μM CsgA) % Control Bmax 100 μM, mean Bmax as percentage of DMSO control, CsgA 2 μM, white plates

T1 sequence (P28307 23-151): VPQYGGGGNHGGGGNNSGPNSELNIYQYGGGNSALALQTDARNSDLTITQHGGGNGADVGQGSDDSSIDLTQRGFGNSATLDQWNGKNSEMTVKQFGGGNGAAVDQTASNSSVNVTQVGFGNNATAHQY

| SMILES | remaining activity at 25 µM [1] [%] | remaining activity at 25 µM [2] [%] | remaining activity at 100 µM [3] [%] | remaining activity at 100 µM [4] [%] | remaining activity at 25 µM [5] [%] | remaining activity at 25 µM [6] [%] | remaining activity at 100 µM [7] [%] | remaining activity at 100 µM [8] [%] |
| --- | --- | --- | --- | --- | --- | --- | --- | --- |
| O=C(O)[C@@H]1CNS(=O)(=O)c2c(-c3cccc(C(F)(F)F)c3)c(Cc3cccc4ccccc34)cc(=O)n21 (single isomer, unassigned) [Compound 009a] | 31 to 60 | 46 | 11 to 31 | 17 | – | – | – | – |
| O=C(O)[C@H]1CNS(=O)(=O)c2c(-c3cccc(C(F)(F)F)c3)c(Cc3cccc4ccccc34)cc(=O)n21 (single isomer, unassigned) [Compound 009b] | > 60 | 67 | 31 to 60 | 37 | – | – | – | – |
| O=C(O)CCCCN1CC(C(=O)O)n2c(c(-c3cccc(C(F)(F)F)c3)c(Cc3cccc4ccccc34)cc2=O)S1(=O)=O (centres unmarked) [Compound 039, 2-(4-carboxybutyl)-8-(naphthalen-1-ylmethyl)-6-oxo-9-(3-(trifluoromethyl)phenyl)-3,4-dihydro-2H,6H-pyrido[1,2-e][1,2,5]thiadiazine-4-carboxylic acid 1,1-dioxide] | > 60 | 92 | 11 to 31 | 24 | – | – | – | – |
| CCc1c(Cc2cccc3ccccc23)c(-c2cccc(C(F)(F)F)c2)c2n(c1=O)C(C(=O)O)CN(C)S2(=O)=O (centres unmarked) [Compound 076, 7-ethyl-2-methyl-8-(naphthalen-1-ylmethyl)-6-oxo-9-(3-(trifluoromethyl)phenyl)-3,4-dihydro-2H,6H-pyrido[1,2-e][1,2,5]thiadiazine-4-carboxylic acid 1,1-dioxide] | 11 to 31 | 17 | 11 to 31 | 14 | – | – | – | – |
| O=C(O)C1CN(C(=O)OCc2ccccc2)c2c(-c3cccc(C(F)(F)F)c3)c(Cc3cccc4ccccc34)cc(=O)n21 (centres unmarked) [Compound 103, 1-((benzyloxy)carbonyl)-7-(naphthalen-1-ylmethyl)-5-oxo-8-(3-(trifluoromethyl)phenyl)-1,2,3,5-tetrahydroimidazo[1,2-a]pyridine-3-carboxylic acid] | > 60 | 95 | > 60 | 102 | – | – | – | – |
| Cn1cc(C(=O)O)n2c(=O)cc(Cc3cccc4ccccc34)c(-c3cccc(C(F)(F)F)c3)c12 [Compound 111, 1-methyl-7-(naphthalen-1-ylmethyl)-5-oxo-8-(3-(trifluoromethyl)phenyl)-1,5-dihydroimidazo[1,2-a]pyridine-3-carboxylic acid] | > 60 | 98 | > 60 | 95 | – | – | – | – |
| CCCN1CC(C(=O)O)n2c(c(-c3cccc(C(F)(F)F)c3)c(Cc3cccc4ccccc34)c(OCc3ccccc3)c2=O)S1(=O)=O (centres unmarked) [Compound 146, 7-(benzyloxy)-8-(naphthalen-1-ylmethyl)-6-oxo-2-propyl-9-(3-(trifluoromethyl)phenyl)-3,4-dihydro-2H,6H-pyrido[1,2-e][1,2,5]thiadiazine-4-carboxylic acid 1,1-dioxide] | – | – | – | – | > 60 | 113 | > 60 | 63 |
| CCCOc1c(Cc2cccc3ccccc23)c(-c2cccc(C(F)(F)F)c2)c2n(c1=O)C(C(=O)O)CN(CCC)S2(=O)=O (centres unmarked) [Compound 147, 8-(naphthalen-1-ylmethyl)-6-oxo-7-propoxy-2-propyl-9-(3-(trifluoromethyl)phenyl)-3,4-dihydro-2H,6H-pyrido[1,2-e][1,2,5]thiadiazine-4-carboxylic acid 1,1-dioxide] | – | – | – | – | > 60 | 101 | > 60 | 139 |
| CCCN1CC(C(=O)O)n2c(c(-c3cccc(C(F)(F)F)c3)c(Cc3cccc4ccccc34)c(OC(C)C)c2=O)S1(=O)=O (centres unmarked) [Compound 148, 7-isopropoxy-8-(naphthalen-1-ylmethyl)-6-oxo-2-propyl-9-(3-(trifluoromethyl)phenyl)-3,4-dihydro-2H,6H-pyrido[1,2-e][1,2,5]thiadiazine-4-carboxylic acid 1,1-dioxide] | – | – | – | – | > 60 | 79 | > 60 | 113 |
| CCCN1CC(C(=O)O)n2c(c(-c3cccc(C(F)(F)F)c3)c(Cc3cccc4ccccc34)c(NC(C)C)c2=O)S1(=O)=O (centres unmarked) [Compound 149, 7-(isopropylamino)-8-(naphthalen-1-ylmethyl)-6-oxo-2-propyl-9-(3-(trifluoromethyl)phenyl)-3,4-dihydro-2H,6H-pyrido[1,2-e][1,2,5]thiadiazine-4-carboxylic acid 1,1-dioxide] | – | – | – | – | > 60 | 98 | > 60 | 115 |
| O=C(O)C1CN(Cc2ccccc2)c2c(-c3cccc(C(F)(F)F)c3)c(CN3CCCCC3)c(Cl)c(=O)n21 (centres unmarked) [Compound 218, 1-benzyl-6-chloro-5-oxo-7-(piperidin-1-ylmethyl)-8-(3-(trifluoromethyl)phenyl)-1,2,3,5-tetrahydroimidazo[1,2-a]pyridine-3-carboxylic acid] | – | – | – | – | > 60 | 115 | > 60 | 109 |
